Results: article PMC11813147, “Bioactivity assessment of peptides derived from salted jellyfish (Rhopilema hispidum) byproducts” (PLOS ONE, 2025)

Tests used:
[1] = Ferric reducing antioxidant power (FRAP) assay; format: biochemical
Procedure: The FRAP assay was conducted following the method outlined by Rumpf et al.. The FRAP solution was prepared by mixing 300 mM acetate buffer (pH 3.6), 10 mM TPTZ (2,4,6-Tris(2-pyridyl)-s-triazine) in 40 mM hydrochloric acid, and 20 mM FeCl3 in a ratio of 10:1:1. In a 96-well plate, 10 μL of the sample was combined with 190 μL of the FRAP solution and incubated in the dark for 15 min. The absorbance of the mixture was then measured at 593 nm. FeSO4 was used to create the standard curve, and the results were expressed as millimoles of FeSO4 equivalent per milligram of protein (mM FeSO4/mg protein).

RAW 264.7 [2] = assay: Cytotoxicity assessment (MTT); format: cell-based, Murine; conditions: peptide 10 µg/mL, 72 h
Procedure: (§1) Murine macrophage cells (RAW 264.7; ATCC TIB-71™) were cultured in Dulbecco’s Modified Eagle’s Medium (DMEM) that was supplemented with 10% heat-inactivated fetal bovine serum (FBS) and 1% antibiotic solution. Colorectal adenocarcinoma cells (CaCo-2; ATCC HTB 37™) were cultured in Eagle’s Minimum Essential Medium (EMEM), also supplemented with 10% heat-inactivated FBS and 1% antibiotic solution. Both cell types were maintained in a humidified incubator with 5% CO2. The cell culture medium was refreshed every three days.
Cytotoxicity assessment was performed following the method described by Yang et al., with slight modifications. RAW 264.7 was seeded with 1 x 10^5 cells in a 96-well plate with an appropriate cell culture medium. After allowing the cells to attach, the medium was replaced with a fresh cell culture medium containing the peptide samples at a concentration of 10 µg/mL. The treated cells were incubated for an additional 72 h. At the designated time, fresh medium was added, which included 3-(4,5-dimethylthiazol-2-yl)-2,5-diphenyltetrazolium bromide (MTT) at a concentration of 0.5 mg/mL. After 3 h, formazan crystals were observed. The medium was then removed, and the crystals were dissolved in 100% dimethyl sulfoxide (DMSO). A microplate reader (Synergy HTX; Biotek, Multi-Mode Reader, Winooski, VT, USA) was utilized to measure the absorbance at 570 nm (measurement wavelength) and 630 nm (reference wavelength). The percentage of cell viability was calculated relative to untreated cells using the following equation (5):
Cellviability%=ODtreatment–ODblank/ODuntreated–ODblank×100 (5)
Where ODtreatment is the absorbance of the treated sample, ODuntreated is the absorbance of the untreated sample, and ODblank is the absorbance from wells without treated and untreated samples.

[3] = system: angiotensin I-converting enzyme (ACE); assay: ACE inhibitory activity assay (fluorometric ACE activity assay kit); format: biochemical
Procedure: The ACE inhibitory activity assay was performed following the method outlined by Batista et al., with slight modifications, using a fluorometric angiotensin I-converting enzyme (ACE) activity assay kit from Sigma-Aldrich (catalog number CS0002), Burlington, Massachusetts, USA. In summary, 10 µ L of the sample (1 mg/mL for the peptide sample and 50 µg/mL for ramipril) was combined with 40 µ L of the ACE solution (CS0002B) in 96-well flat-bottom black plates at 37 °C for 5 min. Next, 50 µ L of the substrate solution (CS0002C) was added to this mixture to initiate the reaction. A fluorescence multiwell plate reader was used to monitor the changes in fluorescence. The sample’s fluorescence was measured every min for 5 min, with excitation at 320 nm and emission at 405 nm. All reagents, except the test sample, were prepared to assess the ACE positive control activity. A kit standard solution (CS0002D) was diluted with assay buffer (CS0002A) to create different concentrations (nmol) of the standard solution, allowing generation of a standard curve. The slope of the standard curve (RFU/nmol) and the slope of the sample kinetic curve were utilized to calculate the ACE activity using the following equation (3):
ACEactivitynmol/min=Slopesample/Slopestandard×DF (3)
Where Slopesample refers to the slope of the blank-subtracted sample curve (RFU/min), Slopestandard refers to the slope of the blank-subtracted standard curve (RFU/nmol), DF is the dilution factor, and 0.1 nmol/min is equivalent to […].
In this study, the results of ACE inhibitory activity are expressed as percentages. The ACE inhibitory activity (%) was calculated using the following equation (4):
ACEinhibitoryactivity%=ACEPC–ACES/ACEPC×100 (4)
Where ACEPC represents the ACE activity of the positive control, and ACES denotes the ACE activity of the sample.

RAW 264.7 [4] = assay: Anti-inflammation assay: released NO in LPS-stimulated RAW 264.7 (Griess); format: cell-based, Murine; conditions: then 1 µg/mL LPS 24 h; for Released NO: peptide 10 µg/mL 1 h; for Released NO, mean±SD: peptide 10 µg/mL pre-treatment 1 h, Griess reagent, n = 3
Procedure: as §1
The anti-inflammation assay was conducted following the method described by Barzkar et al. with slight modifications. RAW 264.7 (1 x 10^5 cells) was seeded into a 96-well plate to allow for cell attachment. After 24 h, the cells were pre-treated with fresh medium containing peptide samples at a concentration of 10 µg/mL for 1 h. Subsequently, the treated cells were stimulated with 1 µg/mL lipopolysaccharide (LPS) for an additional 24 h. Unstimulated cells were included as a negative control. At the end of the treatment period, the conditioned medium was collected for the determination of released nitric oxide (NO). Griess’s reagent (Promega) was utilized to measure the NO concentration, following the manufacturer’s instructions. A NO calibration curve was generated to quantify the released NO in the conditioned medium.

[5] = ABTS radical scavenging assay; format: biochemical; conditions: supplement tables; for ABTS, mean±SD: n = 3
Procedure: The ABTS radical scavenging activity of the sample was measured using a method adapted from Mirzaei et al.. The ABTS radical was generated by mixing 7 mM ABTS with 2.45 mM potassium persulfate in a 1:1 ratio and incubating the mixture in the dark at room temperature for 12 to 16 h. The resulting solution was then diluted to achieve an absorbance of 0.74 ± 0.03 at 734 nm, using deionized water for adjustments. Next, 10 μL of the sample was added to 190 μL of the ABTS solution. The mixture was incubated in the dark for 7 min, after which the absorbance was measured at 734 nm. The ABTS radical scavenging activity (%) was calculated using the following equation (2):
ABTSradicalscavengingactivity%=Acontrol–Asample/Acontrol×100 (2)
In this equation, Acontrol refers to the absorbance of the control solution (which contains all reagents except the test samples), while Asample refers to the absorbance of the mixture containing the sample and the ABTS solution. To determine the Trolox equivalent antioxidant capacity (TEAC), a Trolox standard curve was used, and the results were expressed as millimoles of Trolox equivalents per milligram of protein (mM TE/mg protein).

[6] = DPPH radical scavenging assay; format: biochemical; conditions: supplement tables; for DPPH, mean±SD: n = 3
Procedure: The DPPH radical scavenging activity of the sample was assessed following a modified protocol based on a previous study. In each well of a 96-well plate, 10 μL of the sample was added, followed by 190 μL of 0.1 mM DPPH solution in 70% ethanol. The mixture was then incubated at room temperature in the dark for 30 min. After the incubation period, the absorbance of the mixture was measured at 517 nm. The DPPH radical scavenging activity was calculated using the following equation (1):
DPPHradicalscavengingactivity%=Acontrol–Asample/Acontrol×100 (1)
In this equation, Acontrol represents the absorbance of a control solution containing all reagents except for the test samples, while Asample is the absorbance of the mixture (the sample combined with 0.1 mM DPPH). To determine the Trolox equivalent antioxidant capacity (TEAC), a Trolox standard curve was utilized. The results were expressed as millimoles of Trolox equivalents per milligram of protein (mM TE/mg protein).

[7] = 10 µL sample + 190 µL FRAP solution, 15 min dark, 593 nm, FeSO4 standard curve, mean ± SD, n = 3, SD
[8] = peptide sample 1 mg/mL, 37 °C, fluorescence ex 320/em 405 nm, mean ± SD, n = 3, SD
[9] = peptide sample 1 mg/mL, replicate 1
[10] = peptide sample 1 mg/mL, replicate 2
[11] = peptide sample 1 mg/mL, replicate 3

Compound | FRAP ([1]; supplement tables, replicate 1) | FRAP ([1]; supplement tables, replicate 2) | FRAP ([1]; supplement tables, replicate 3) | Cell viability (RAW 264.7 [2]; replicate 1) | Cell viability (RAW 264.7 [2]; replicate 2) | Cell viability (RAW 264.7 [2]; replicate 3) | ACE inhibitory activity [3, 9] | ACE inhibitory activity [3, 10] | ACE inhibitory activity [3, 11] | Released NO (RAW 264.7 [4]; replicate 1) | Released NO (RAW 264.7 [4]; replicate 2) | Released NO (RAW 264.7 [4]; replicate 3) | Released NO, mean±SD (RAW 264.7 [4]) | ABTS, mean±SD [5] | ABTS ([5]; replicate 1) | ABTS ([5]; replicate 2) | ABTS ([5]; replicate 3) | DPPH, mean±SD [6] | DPPH ([6]; replicate 1) | DPPH ([6]; replicate 2) | other results
LMFMAVAFF [P12, synthesized peptide identified from jellyfish fraction PUR20C] | 16.26 mM FeSO4/mg protein | 17.31 mM FeSO4/mg protein | 16.68 mM FeSO4/mg protein | 76.97% | 73.98% | 74.86% | 49.61% | 43.60% | 49.33% | 36.89 µM | 38.62 µM | 40.00 µM | 38.50±1.55^B µM | 0.64±0.30^M TE/mg protein | 0.90 TE/mg protein | 0.30 TE/mg protein | 0.70 TE/mg protein | 2.75 TE/mg protein | 2.58 TE/mg protein | 2.58 TE/mg protein | FRAP [1, 7]: 16.75±0.52^B mM FeSO4/mg protein; ACE inhibitory activity, mean±SD [3, 8]: 47.51±3.39^D %; DPPH ([6]; replicate 3): 3.11 TE/mg protein
CCOC(=O)[C@H](CCc1ccccc1)N[C@@H](C)C(=O)N1[C@H](C(=O)O)C[C@@H]2CCC[C@@H]21 [Ramipril, ramipril, reference compound] | – | – | – | – | – | – | – | – | – | – | – | – | – | – | – | – | – | – | – | – | ACE inhibitory activity, mean±SD ([3]; ramipril 50 µg/mL, mean ± SD, n = 3, SD): 23.23±0.44^G %; ACE inhibitory activity, mean±SD ([3]; ramipril 50 µg/mL, mean ± SD, n = 3, listed as ramipril, SD): 23.23 ± 0.44%; ACE inhibitory activity ([3]; ramipril 50 µg/mL, replicate 1): 22.79%; ACE inhibitory activity ([3]; ramipril 50 µg/mL, replicate 2): 23.23%; ACE inhibitory activity ([3]; ramipril 50 µg/mL, replicate 3): 23.67%
EIILIPMF [P3, synthesized peptide identified from jellyfish fraction PUR20C] | 9.31 mM FeSO4/mg protein | 9.31 mM FeSO4/mg protein | 9.10 mM FeSO4/mg protein | 75.57% | 75.92% | 75.39% | 33.58% | 33.87% | 34.16% | 37.58 µM | 35.17 µM | 37.24 µM | 36.66 ± 1.30 µM | 3.17 TE/mg protein | 3.31 TE/mg protein | 2.71 TE/mg protein | 3.51 TE/mg protein | 2.93 TE/mg protein | 2.84 TE/mg protein | 2.58 TE/mg protein | FRAP [1, 7]: 9.24±0.12 mM FeSO4/mg protein; ACE inhibitory activity, mean±SD [3, 8]: 33.87±0.28^E %; DPPH ([6]; replicate 3): 3.37 TE/mg protein
NFTVLCDSLE [P10, synthesized peptide identified from jellyfish fraction PUR20C] | 20.05 mM FeSO4/mg protein | 21.10 mM FeSO4/mg protein | 18.36 mM FeSO4/mg protein | 85.41% | 84.35% | 86.29% | 11.25% | 9.82% | 8.39% | 35.86 µM | 35.17 µM | 38.27 µM | 36.43 µM | 98.00±0.50^G TE/mg protein | 97.47 TE/mg protein | 98.07 TE/mg protein | 98.47 TE/mg protein | 45.99±1.10^B TE/mg protein | 46.34 TE/mg protein | 44.75 TE/mg protein | Cell viability, mean±SD (RAW 264.7 [2]; relative to untreated cells, mean ± SD, n = 3, SD): 85.35%; inhibition [3, 8]: 9.82 ± 1.43%; DPPH ([6]; replicate 3): 46.87 TE/mg protein
